From ChEMBL document CHEMBL1135156, “Synthesis of novel furo, thieno, and benzazetoazepines and evaluation of their cytotoxicity” (Bioorg Med Chem Lett, 2002)

Experiments:
U-251 = test: Inhibitory activity against U251 CNS cell line using sulforhodamine B (SRB) protein assay; type: functional, cell-based; conditions: Homo sapiens
MCF7 = test: Inhibitory activity against MCF-7 breast cell line using sulforhodamine B (SRB) protein assay; type: functional, cell-based; conditions: Homo sapiens
HCT-15 (Homo sapiens) = test: Inhibitory activity against HCT-15 colon cell line using sulforhodamine B (SRB) protein assay
K562 = test: Iinhibitory activity against K562 leukemia cell line using sulforhodamine B (SRB) protein assay; type: functional, cell-based; conditions: Homo sapiens
PC-3 = test: Inhibitory activity against PC-3 prostate cell line using sulforhodamine B (SRB) protein assay; type: functional, cell-based; conditions: Homo sapiens
HCT-15 = test: Inhibitory activity against HCT-15 colon cell line using sulforhodamine B (SRB) protein assay; type: functional, cell-based; conditions: Homo sapiens

SMILES	IC50 (U-251) [µM]	IC50 (MCF7) [µM]	IC50 (HCT-15 (Homo sapiens)) [µM]	IC50 (K562) [µM]	IC50 (PC-3) [µM]	IC50 (HCT-15) [µM]
COc1cccc2c1CCCN1C(=O)[C@@H](Oc3ccccc3)[C@]21SC	25	33	19	23	21	
CS[C@@]12c3cc(C)n(-c4ccc(I)cc4)c3CC(C)(C)CN1C(=O)[C@H]2Oc1ccccc1	40	> 100		> 100	87	> 100
COc1cccc2c1C(=O)c1c(O)c3c(c(O)c1C2=O)C[C@@](O)(C(=O)CO)C[C@@H]3O[C@H]1C[C@H](N)[C@H](O)[C@H](C)O1 [DOXORUBICIN]	0.09			0.28	32	0.23

Other lines, results leading:

IC50 (U-251) [µM]	IC50 (MCF7) [µM]	IC50 (HCT-15 (Homo sapiens)) [µM]	IC50 (K562) [µM]	IC50 (PC-3) [µM]	IC50 (HCT-15) [µM]	SMILES
47	47		31	53	56	CS[C@@]12c3cc(C)oc3CC(C)(C)CN1C(=O)[C@H]2Oc1ccccc1
33	41		39	11	26	CS[C@@]12c3cc(C)sc3CC(C)(C)CN1C(=O)[C@H]2Oc1ccccc1
